Values quoted from earlier work in US20220215898A1, “METHODS AND […] FOR GENERATING A VIRTUAL MODEL OF XENOBIOTIC EXPOSURE USING TRANS[…] OF LIQUID BIOPSY SAMPLES” (Certara USA, Inc., priority 2019, published 2022).

Settings: compound files selected from the Simcyp library

SMILES | clearance category of CYP3A substrate
Cc1nnc2n1-c1ccc(Cl)cc1C(c1ccccc1)=NC2 [alprazolam] | low clearance
Cc1ncc2n1-c1ccc(Cl)cc1C(c1ccccc1F)=NC2 [midazolam] | medium clearance
